Test system: APP α-secretase cleavage
Experiment: Western blot of APP CTFs and sAPP-α in SweAPP N2a cells (Examples 6-7, with or without siRNA knock-down)
Assay type: cell-based, murine
Details: various doses of EGCG, 8 h
Source text: FIGS. 8A-8H show EGCG-induced ADAM10 activation correlates with APP α-secretase cleavage in vitro. […] Data were represented as % change relative to control (medium from cultured SweAPP N2a cells or primary neuronal cells without any treatment).
FIGS. 10A-10C show ADAM10 is required for EGCG-induced APP α-secretase cleavage. […] In FIG. 10A, cell lysates were subjected to WB for APP CTFs and ADAM10 cleavage analyses. […] In FIG. 10B, cell culture media were subjected to WB for sAPP-α secretion. […] In FIG. 10C, cell culture media were subjected to Aβ ELISA. Data are represented as % change relative to control (medium from cultured SweAPP N2a cells without any treatment). […] Data are representative of three independent experiments.
Cultured cells were lysed in ice-cold lysis buffer described above, and an aliquot corresponding to 50 μg of total protein was electrophoretically separated using 16.5% Tris-tricine gels. […] Densitometric analysis was done using the Fluor-S MultiImager™ with Quantity One™ software (Bio-Rad). […]
SweAPP N2a cells were transfected with siRNA pre-designed to knock-down murine ADAM9, 10, or 17 mRNA (Dharmacon Inc. Lafayette, Colo.). […] Transfection efficiency was determined to be greater than 80% (data not shown) using no-RISC siGLOW (fluorescently labeled non-functional siRNA; Dharmacon). […] The cells were evaluated by Western blot analysis for expression of ADAM9, 10 or 17. […]

O=C(O[C@@H]1Cc2c(O)cc(O)cc2O[C@@H]1c1cc(O)c(O)c(O)c1)c1cc(O)c(O)c(O)c1 [EGCG, (−)-epigallocatechin-3-gallate]
sAPP-α: dose-dependent increases
α-CTF: dose-dependent increases
